Results: patent publication US6544967B2, “Method for inhibiting bone resorption” (Merck & Co., Inc., priority 1997, dated 2003)

Test system: canine esophagus tissue
Test: Esophageal irritation potential, dog model (esophageal infusion in simulated gastric juice, histopathology)
Type: in vivo
Conditions: for Histopathology of esophagus (photomicrographs): 50 mL; for Esophageal irritation potential: low dosages on consecutive days (Group 7 risedronate, Group 8 tiludronate)
Experimental: The esophageal irritation potential of the bisphosphonates is evaluated using a dog model.
The following solutions are prepared:
(1) simulated gastric juice (pH about 2), i.e. the control solution.
(5) simulated gastric juice (pH about 2) containing about 0.20 mg/mL of risedronate sodium on a risedronic acid active basis.
(6) simulated gastric juice (pH about 2) containing about 4.0 mg/mL of tiludronate disodium on a tiludronic acid active basis.
The simulated gastric juice is prepared by dissolving about 960 mg of pepsin (L-585,228000B003, Fisher Chemical) in about 147 mL of 0.90 (wt %) NaCl (aqueous), adding about 3 mL of 1.0 M HCl (aqueous), and adjusting the volume to about 300 mL with deionized water. The pH of the resulting solution is measured and if necessary is adjusted to about 2 using 1.0 M HCl (aqueous) or 1.0 M NaOH (aqueous).
The animals used in the experiments are anesthetized and administered about 50 mL of the appropriate solution over about 30 minutes by infusion into the esophagus using an infusion pump and a rubber catheter. The following treatment experiments are run:
Group 1: This control group contains four animals. Each animal is administered a dosage of about 50 mL of simulated gastric juice [solution (1)] on each of five consecutive days. The animals are sacrificed immediately after the last dose is administered.
Group 2: This group contains four animals. […] The animals are sacrificed immediately after the last dose is administered.
Group 3: This group contains five animals. […] The animals are sacrificed about 24 hours after the dose is administered.
Group 4: This group contains five animals. […] The animals are sacrificed about 7 days after the dose is administered.
Group 5: This group contains six animals. […] The animals are administered a total of four dosages. The animals are sacrificed about 7 days after the last dose is administered.
Group 6: This group contains six animals. […] The animals are administered a total of eight dosages. The animals are sacrificed about four days after the last dose is administered.
Group 7: This group contains eight animals. Each animal is administered a dosage of about 50 mL of simulated gastric juice containing about 0.20 mg/mL of risedronate [solution (5)] on each of five consecutive days. The animals are sacrificed immediately after the last dose is administered.
Group 8: This group contains four animals. Each animal is administered a dosage of about 50 mL of simulated gastric juice containing about 4.0 mg/mL of tiludronate on each of five consecutive days. The animals are sacrificed immediately after the last dose is administered.
The esophagus from each sacrificed animal is removed and prepared for histopathology using standard techniques by embedding the tissue in paraffin, staining with hematoxylin and eosin. The sections are examined microscopically.

Structure (SMILES)	Histo-pathology (Group 2 (n = 4): 0.20 mg/mL, 50 mL in simulated gastric juice pH about 2, 1X daily for 5 days, sacrifice immediately after last dosing, monosodium trihydrate)	Histo-pathology (Group 3 (n = 5): 0.80 mg/mL, 50 mL in simulated gastric juice, 1X, sacrifice 24 hours after dosing, monosodium trihydrate)	Histo-pathology (Group 4 (n = 5): 0.80 mg/mL, 50 mL in simulated gastric juice, 1X, sacrifice 7 days after dosing, monosodium trihydrate)	Histo-pathology (Group 5 (n = 6): 0.80 mg/mL, 50 mL in simulated gastric juice, 1X weekly for a total of 4 doses, sacrifice 7 days after last dosing, monosodium trihydrate)	Histopathology of esophagus (photomicrographs) (Group 6: 0.40 mg/mL, twice per week for four weeks (eight dosages), sacrifice about four days after last dose)	Histo-pathology (Group 7 (n = 8): 0.20 mg/mL, 50 mL in simulated gastric juice, 1X daily for 5 days, sacrifice immediately after last dosing)	Esophageal irritation potential	Histopathology of esophagus (photomicrographs) (Group 8: 4.0 mg/mL, five consecutive days, sacrifice immediately after last dose)
NCCCC(O)(P(=O)(O)O)P(=O)(O)O [Alendronate, 4-amino-1-hydroxybutylidene-1,1-bisphosphonic acid monosodium trihydrate]	deep ulceration of the epithelial surface and marked submucosal inflammation and vacuolation	intact epithelial surface with very slight submucosal inflammation and vacuolation	intact epithelium with either minimal inflammation (two of the five animals) or no inflammation (three of the five animals) and no vacuolation	normal with an intact epithelium and absence of inflammatory cells in the submucosa	deep ulceration of the epithelial surface and marked submucosal inflammation and vacuolation			
O=P(O)(O)C(O)(Cc1cccnc1)P(=O)(O)O [Risedronate, 1-hydroxy-2-(3-pyridinyl)-ethylidene-1,1-bisphosphonic acid]						deep ulceration of the epithelial surface and marked submucosal inflammation and vacuolation	high	
O=P(O)(O)C(Sc1ccc(Cl)cc1)P(=O)(O)O [Tiludronate, (4-chlorophenyl)thiomethane-1,1-disphosphonic acid]							high	slight ulceration of the epithelial surface and slight submucosal inflammation and vacuolation
